Consider 3 molecules from patent publication USRE30241E, “Esters of 3-(hydroxy or hydroxymethyl)-4-hydroxyphenyl aminomethyl ketones” (Sterling Drug Inc., priority 1970, dated 1980).

Test [1] relates to carbachol- or histamine-induced bronchoconstriction. Briefly: Bronchodilator Test Method I, anesthetized dog, intraduodenal activity. The test is classed as in vivo. Particulars: Canis lupus familiaris, read-out: Bronchodilation; for inhibition in vivo at 0.45 mg/kg: 450 mcg/kg (salt) intraduodenal; for inhibition in vivo at 0.038 mg/kg: 38 mcg/kg (salt) intraduodenal. How it is done:
(§1) Male and female dogs weighing 9-18 kg. each were anesthetized with pentobarbital sodium (30 mg./kg. i.v.). Each animal, with thorax opened at the midsternum, was maintained under artificial ventilation using a constant volume pump (250 ml./stroke; 10 to 12 strokes per minute) attached to the tracheal cannula. The flow of air was controlled by a glass or plastic valve which closed and opened respectively on inflow and outflow of the air to and from the tracheal cannula. Bronchoconstriction and/or bronchodilatation were measured from changes in the basal airway pressure reflected by a transducer attached to the sidearm of the cannula relayed to a polygraph.
Control bronchoconstrictions were induced by intravenous injections of carbachol (choline chloride carbamate) in doses ranging from 4 to 6 micrograms per kilogram or histamine diphosphate in doses ranging from 35 to 45 micrograms per kilogram. In the majority of test animals, the above doses of constrictor agents produced a 100-200 percent increase in the normal airway pressure or amplitude.
Injections were repeated at 20-30 minutes.
In intraduodenal studies, in the dog prepared for bronchodilation measurements, the duodenal segment of the small intestine was made easily accessible through a small mid-line incision in the abdomen. The test solution was injected into the duodenum using a fine needle. Commencing 5 minutes after medication, the degree and duration of bronchodilation were tested by injecting a control dose of carbachol or histamine at intervals of 30-60 minutes until the recovery or near-recovery was apparent. In some dogs showing an early recovery, a reference drug was also tested in the same dog 1.5-2 hours after the first medicine.

For test [2] the test system is unchanged. Briefly: Bronchodilator Test Method I, anesthetized dog, intravenous activity. Conditions: Canis lupus familiaris, read-out: Bronchodilatation; for inhibition in vivo at 0.02 mg/kg: 20 mcg/kg i.v.; for inhibition in vivo at 0.1 mg/kg: 100 mcg/kg i.v.; for inhibition in vivo at 0.005 mg/kg: 5 mcg/kg i.v.; for inhibition in vivo at 0.0012 mg/kg: 1.2 mcg/kg i.v.; for inhibition in vivo at 0.006 mg/kg: 6.0 mcg/kg i.v. The class given is in vivo. As for the experimental part: Bronchodilator activity was tested in anesthetized dogs (Test Method I) and in vitro on the perfused guinea pig lung (Test Method II), using the following pharmacological test procedures
as §1
Control bronchoconstrictions were induced by intravenous injections of carbachol (choline chloride carbamate) in doses ranging from 4 to 6 micrograms per kilogram or histamine diphosphate in doses ranging from 35 to 45 micrograms per kilogram.
Solutions of the test compounds were prepared in distilled water or in saline (for infusion). […] These solutions were then tested for bronchodilator activity in three ways, viz. (1) by mixing a graded dose of test compound with the constant does of carbachol or histamine in a syringe and injecting the mixture into the femoral vein of the dog, (2) by producing the bronchoconstriction first and injecting the test compound at the time of maximum constriction, and (3) by injecting the test compound first followed by carbachol or histamine in 1-10 minutes. Injections were repeated at 20-30 minutes. Bronchodilator values were obtained by measuring the areas under the response polygraph tracings (the first 5 munite period) of carbachol or histamine controls and of the experimentals using a planimeter. Decrease in the area thus measured was expressed as a percent bronchodilatation in reference to the area of control carbachol or histamine constriction. The mean bronchodilatations (the reductions in constrictions) were plotted against the doses administered and the mean effective dose (ED50) was estimated in micrograms/kilogram from the does-response curves. Blood pressure recording was taken from the femoral artery using an arterial transducer relayed to a polygraph.

Like-named read-outs stand apart in the source and are kept apart here.

Turning to `Cc1ccc(C(=O)Oc2ccc(C(O)CN)cc2OC(=O)c2ccc(C)cc2)cc1` (stereo not drawn) [Example 127, 3,4-bis(p-toluyloxy)-alpha-(aminomethyl)benzyl alcohol methanesulfonate], the inhibition in vivo at 0.45 mg/kg is 16% in test [1] (5 min, 5 min); 16% in test [1] (10 min, 10 min); 0% in test [1] (1 h, 60 min); 0% in test [1] ([…], after 90 min).
With `CC(C)CC(=O)OCc1cc(C(O)CNC(C)(C)C)ccc1OC(=O)CC(C)C` (stereo not drawn) [Example 136, 3-(isovaleryloxymethyl)-4-(isovaleryloxy)-alpha-(tert-butylaminomethyl)benzyl alcohol methanesulfonate], the inhibition in vivo at 0.02 mg/kg in test [2] (5 min, 5 min) is 36%; in test [2] (0.5 h, 30 min) it was 53%; in test [2] (1 h, 60 min), 57%; in test [2] (2 h, 120 min), 40%; in test [2] (3 h, 180 min), 12%; in test [2] (4 h, 240 min) it was 7%. Also, the inhibition in vivo at 0.02 mg/kg in test [2] (5 h, 300 min) is 12%. In addition, the inhibition in vivo at 0.1 mg/kg in test [2] (5 min, 5 min) turned out to be 82%; in test [2] (0.5 h, 30 min), 80%; in test [2] (1 h, 60 min), 70%; in test [2] (2 h, 120 min) it was 60%; in test [2] (3 h, 180 min), 42%; in test [2] (5 h, 300 min), 32%. In addition, the inhibition in vivo at 0.005 mg/kg stood at 47% in test [2] (1 h, 60 min); 53% in test [2] (3 h, 180 min); 46% in test [2] (4 h, 240 min); 46% in test [2] (5 h, 300 min).
`CC(=O)Oc1ccc(C(O)CNC(C)(C)C)cc1OC(=O)c1ccc(C)cc1` (stereo not drawn) [Example 146, 3-(p-toluyloxy)-4-acetoxy-alpha-(tert-butylaminomethyl)benzyl alcohol methanesulfonate]: the inhibition in vivo at 0.038 mg/kg was 60% in test [1] (5 min, 5 min); 39% in test [1] (0.5 h, 30 min); 39% in test [1] (1 h, 60 min); 26% in test [1] (2 h, 120 min); 33% in test [1] (3 h, 180 min); 24% in test [1] (4 h, 240 min). Also, the inhibition in vivo at 0.038 mg/kg in test [1] (5 h, 300 min) is 13%. Also, the inhibition in vivo at 0.0012 mg/kg in test [2] (5 min, 5 min) turned out to be 31%; in test [2] (0.5 h, 30 min), 38%; in test [2] (1 h, 60 min), 44%; in test [2] (3 h, 180 min), 20%; in test [2] (4 h, 240 min), 20%. Besides, the inhibition in vivo at 0.006 mg/kg amounted to 66% in test [2] (5 min, 5 min); 57% in test [2] (0.5 h, 30 min); 63% in test [2] (1 h, 60 min).
